Experimental data reported in patent US20240181081A1, “Compositions and Methods for Treatment of Myotonic Dystrophy Type 1 with CRISPR/SACAS9” (Vertex Pharmaceuticals Incorporated, priority 2021, published 2024).

What was measured:
[1] = tested on: CTG repeat expansion in the 3′ UTR of human DMPK gene; test: DOUBLE-cut screening: CTG repeat excision by loss-of-signal ddPCR in primary DM1 patient myoblasts; assay type: cell-based; conditions: sgRNA pair RNP, mean of upstream and downstream ddPCR assays; for % of CTG repeat excision efficiency by ddPCR (DNA-PKi): 3 μM Compound 6 for 48 hrs; for % of CTG repeat excision efficiency by ddPCR (Vehicle): DMSO 48 hrs
Procedure: (§1) RNPs were assembled with recombinant SaCas9 protein (Aldevron) and chemically modified sgRNAs (Synthego) at a ratio of 1:3 (protein:sgRNA). For SINGLE-cut screening, RNP complexes were assembled with 30 pmol of SaCas9 and 90 pmol of sgRNA in P5 Primary Cell Nucleofector Solution (Lonza). After incubation at room temperature for 20 minutes, 10 μL of RNP complex was mixed with two hundred thousand primary myoblasts resuspended in 10 μL of P5 Nucleofector Solution. For DOUBLE-cut screening, RNP complexes were first assembled for individual sgRNAs with 20 pmol of SaCas9 protein and 60 pmol of sgRNAs in 5 μL of P5 Nucleofector Solution. After incubation at room temperature for 20 minutes, the two RNP complexes (one for upstream sgRNA and one for downstream sgRNA) were mixed at 1:1 ratio and then further mixed with two hundred thousand primary myoblasts resuspended in 10 μL of P5 Nucleofector Solution.
(§2) The Nucleofector 96-well Shuttle System (Lonza) was used to deliver the SaCa9/sgRNA RNPs into primary DM1 patient myoblasts using the nucleofection program CM138. Following nucleofection, myoblasts from each well of nucleofection shuttle were split into six wells of the 96-well cell culture plate (Greiner, 655090) coated with matrigel. The first three wells were treated with DMSO for 48 hrs before changing to fresh myoblast growth medium, and the other three wells were treated with 3 μM of DNA-PKi Compound 6 for 48 hrs before changing to fresh myoblast growth medium. 72 hrs post nucleofection, two wells of DMSO-treated myoblasts and two wells of DNA-PKi-treated myoblasts from each nucleofection were harvested for genomic DNA extraction using the Kingfisher Flex purification system (Thermal Fisher), whereas one well of DMSO-treated myoblasts and one well of DNA-PKi-treated myoblasts were stained for RNA foci by FISH staining.
The primers and probes of ddPCR were designed using the online primer design software Primer3Plus (http://www.bioinformatics.nl/cgi-bin/primer3plus/primer3plus.cgi). The two Target primers/probe sets were used to detect CTG repeat excision, and the Reference primers/probe set was used to amplify a region located in Exon 1 of human DMPK gene and it served as a reference control for the Target sets. The 24 μL of ddPCR reaction consisted of 12 μL of Supermix for Probes (no dUTP) (Bio-Rad Laboratories), 1 μL of Reference primers mix (21.6 μM), 1 μL of Reference probe (6 μM), 1 μL of Target primers mix (21.6 μM), 1 μL of Target probe (6 μM), and 8 μL of sample genomic DNA. Droplets were generated using probe oil with the QX200 Droplet Generator (Bio-Rad Laboratories). Droplets were transferred to a 96-well PCR plate, sealed and cycled in a C1000 deep well Thermocycler (Bio-Rad Laboratories) under the following cycling protocol: 1 cycle at 95° C. for 10 min; 40 cycles of 94° C. for 30 sec, and 58° C. for 1 min; 1 cycle at 98° C. for 10 min (for enzyme inactivation). The cycled plate was then transferred and read in the FAM and HEX channels using the Bio-Rad QX200 Droplet Reader (Bio-Rad Laboratories). ddPCR analysis was performed with the Bio-Rad QuantaSoft Pro Software.
Next, DOUBLE-cut screening was performed to assess the efficiency of paired sgRNAs-induced CTG repeat excision and RNA foci reduction. 90 SaCas9 sgRNA pairs formed by one upstream sgRNA and one downstream sgRNA were assembled with recombinant SaCas9 protein into RNP complex and nucleofected into primary DM1 patient myoblasts. Nucleofected myoblasts were treated with either DMSO (vehicle) or 3 μM of Compound 6 (DNA-PKi) for 48 hrs. 72 hrs post nucleofection, myoblasts were subjected to either genomic DNA isolation or RNA foci staining.
One upstream and one downstream loss-of-signal droplet digital PCR (ddPCR) assays were used to determine the efficiency of CTG repeat excision. ddPCR signals would be abolished upon excision of the CTG repeat expansion in these loss-of-signal ddPCR assays. […]

[2] = tested on: CUG RNA foci in primary DM1 patient myoblasts; test: DOUBLE-cut screening: FISH staining of RNA foci in primary DM1 patient myoblasts; assay type: cell-based, human; conditions: sgRNA pair RNP, 72 hrs post nucleofection; for % of CUG foci free nuclei (DNA-PKi): 3 μM Compound 6 for 48 hrs; for % of CUG foci free nuclei (Vehicle): DMSO 48 hrs
Procedure: as §1, §2
Primary myoblasts were fixed for 15 min with 4% paraformaldehyde (PFA) and washed five times with 1×PBS for 10 min each at room temperature. Before staining, cells were permeabilized with 0.5% triton X-100 in 1×PBS for 5 min at room temperature, and then washed with 30% formamide and 2× saline-sodium citrate (SSC) mixture for 10 min at room temperature. Cells were then stained with 1 ng/μL of Cy3-PNA(CAG) 5 probe (PNA Bio, F5001) diluted in 30% formamide, 2×SSC, 2 μg/mL BSA, 66 μg/mL yeast tRNA, and 2 mM vanadyl complex for 15 min at 80° C. Following probe staining, cells were then washed in 30% formamide and 2×SSC mixture for 30 min at 42° C., then washed in 30% formamide and 2×SSC mixture for 30 min at 37° C., and then washed in 1×SSC solution for 10 min at room temperature, and finally washed in 1×PBS for 10 min at room temperature. Cells were next stained with anti-MBNL1 antibody (Santa Cruz, 3A4) diluted in 1% bovine serum albumin (BSA) for overnight at 4° C., and washed twice with 1×PBS for 10 min each at room temperature. Cells were then incubated with the secondary antibody goat […] Alexa 647 (Thermo Fisher, A32728) diluted in 1% BSA for 1 hr at room temperature, and washed twice with 1×PBS for 10 min each at room temperature. Next, cells were stained with Hoechst solution (Thermo Fisher, H3569) at 0.1 mg/ml for 5 min, and washed once with 1×PBS for 5 min. PBS was aspirated and fresh 100 μl of fresh PBS was added to each well. High-throughput acquisition of images was completed with the ImageXpress Micro Confocal High-Content Imaging System (Molecular Devices). RNA foci quantifications were accomplished with a customized analysis module of the MetaXpress program (Molecular Devices).
Next, DOUBLE-cut screening was performed to assess the efficiency of paired sgRNAs-induced CTG repeat excision and RNA foci reduction. 90 SaCas9 sgRNA pairs formed by one upstream sgRNA and one downstream sgRNA were assembled with recombinant SaCas9 protein into RNP complex and nucleofected into primary DM1 patient myoblasts. […]

Substance	% of CTG repeat excision efficiency by ddPCR (DNA-PKi) [1] [%]	% of CTG repeat excision efficiency by ddPCR (Vehicle) [1] [%]	% of CUG foci free nuclei (DNA-PKi) [2] [%]	% of CUG foci free nuclei (Vehicle) [2] [%]
SaU2 + SaD12: SaCas9 sgRNA pair, SEQ ID NOs: 2 and 20 (guide 1 ACTCAGTCTTCCAACGGGGCCC; guide 2 TCAGTGCATCCAAAACGTGGAT; listed as DNA, chemistry not fully specified)	58.68	36.47	83.77	76.56
SaU2 + SaD13: SaCas9 sgRNA pair, SEQ ID NOs: 2 and 21 (guide 1 ACTCAGTCTTCCAACGGGGCCC; guide 2 CCCAACAACCCCAATCCACGTT; listed as DNA, chemistry not fully specified)	51.47	30.92	75.83	39.86
SaU2 + SaD15: SaCas9 sgRNA pair, SEQ ID NOs: 2 and 23 (guide 1 ACTCAGTCTTCCAACGGGGCCC; guide 2 GACAATAAATACCGAGGAATGT; listed as DNA, chemistry not fully specified)	60.64	41.70	85.85	76.57
SaU2 + SaD17: SaCas9 sgRNA pair, SEQ ID NOs: 2 and 25 (guide 1 ACTCAGTCTTCCAACGGGGCCC; guide 2 TTTATTCGCGAGGGTCGGGGGT; listed as DNA, chemistry not fully specified)	52.34	31.11	78.68	55.20
SaU2 + SaD18: SaCas9 sgRNA pair, SEQ ID NOs: 2 and 26 (guide 1 ACTCAGTCTTCCAACGGGGCCC; guide 2 GGGCCTTTTATTCGCGAGGGTC; listed as DNA, chemistry not fully specified)	48.16	19.28	69.93	32.87
SaU2 + SaD19: SaCas9 sgRNA pair, SEQ ID NOs: 2 and 27 (guide 1 ACTCAGTCTTCCAACGGGGCCC; guide 2 AGGACCCCCACCCCCGACCCTC; listed as DNA, chemistry not fully specified)	56.62	49.08	80.94	62.27
SaU2 + SaD20: SaCas9 sgRNA pair, SEQ ID NOs: 2 and 28 (guide 1 ACTCAGTCTTCCAACGGGGCCC; guide 2 AGATGGAGGGCCTTTTATTCGC; listed as DNA, chemistry not fully specified)	61.08	36.35	82.08	74.86
SaU3 + SaD2: SaCas9 sgRNA pair, SEQ ID NOs: 3 and 10 (guide 1 ACTCCGGGGCCCCGTTGGAAGA; guide 2 TCGGCCAGGCTGAGGCCCTGAC; listed as DNA, chemistry not fully specified)	54.49	50.85	82.73	77.08
SaU3 + SaD3: SaCas9 sgRNA pair, SEQ ID NOs: 3 and 11 (guide 1 ACTCCGGGGCCCCGTTGGAAGA; guide 2 CAACGATAGGTGGGGGTGCGTG; listed as DNA, chemistry not fully specified)	57.46	36.25	78.72	51.28
SaU3 + SaD4: SaCas9 sgRNA pair, SEQ ID NOs: 3 and 12 (guide 1 ACTCCGGGGCCCCGTTGGAAGA; guide 2 ACTTTGCGAACCAACGATAGGT; listed as DNA, chemistry not fully specified)	64.28	47.22	87.42	83.67
SaU3 + SaD5: SaCas9 sgRNA pair SaU3 and SaD5; table prints SEQ ID NOS: 2 and 13 (guide 1 ACTCCGGGGCCCCGTTGGAAGA; guide 2 GGGTTTGGCAAAAGCAAATTTC; listed as DNA, chemistry not fully specified)	60.74	43.61	84.63	73.56
SaU3 + SaD6: SaCas9 sgRNA pair, SEQ ID NOs: 3 and 14 (guide 1 ACTCCGGGGCCCCGTTGGAAGA; guide 2 CTTTTGCCAAACCCGCTTTTTC; listed as DNA, chemistry not fully specified)	50.32	24.10	64.84	31.37
